Literature values in US20150018320A1, “Hormone Containing Emulsion Comprising Krill Phospholipids” (B. Braun Melsungen AG, priority 2012, published 2015).

Tested on: TBI patients
Settings: two clinical trials

Structure (SMILES): CC(=O)[C@H]1CC[C@H]2[C@@H]3CCC4=CC(=O)CC[C@]4(C)[C@H]3CC[C@]12C [progesterone, pregn-4-ene-3,20-dione]
- mortality: decreased mortality
- safety and tolerability: safe and well tolerated
